Measured values: patent US12552767B2, “3-heteroaryl pyrrolidine and piperidine orexin receptor agonists” (Merck Sharp & Dohme LLC, priority 2020, dated 2026)

Molecular target: T1, human OX2R (Homo sapiens, UniProt O43614)
T1 construct: expressed in transfected cells; host or cells: CHO (Chinese hamster ovary) cells, grown under G418 selection
T1 sequence (O43614 1-444): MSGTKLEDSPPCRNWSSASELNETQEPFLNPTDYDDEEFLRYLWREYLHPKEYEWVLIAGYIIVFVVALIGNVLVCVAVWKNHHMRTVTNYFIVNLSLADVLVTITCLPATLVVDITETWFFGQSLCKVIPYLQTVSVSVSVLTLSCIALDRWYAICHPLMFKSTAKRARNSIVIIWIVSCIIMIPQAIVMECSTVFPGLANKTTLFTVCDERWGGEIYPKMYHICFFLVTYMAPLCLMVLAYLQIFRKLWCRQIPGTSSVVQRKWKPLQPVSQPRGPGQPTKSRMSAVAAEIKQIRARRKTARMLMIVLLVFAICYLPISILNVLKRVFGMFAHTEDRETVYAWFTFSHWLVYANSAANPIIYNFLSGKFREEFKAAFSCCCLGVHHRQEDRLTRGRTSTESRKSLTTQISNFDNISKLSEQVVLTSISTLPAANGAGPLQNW
Experiment: IP-One (IPOne) orexin receptor agonist assay in CHO cells expressing human OX2R
Assay type: cell-based
Conditions: for EC50: CHO cells expressing human OX2R, IP-One IP-1 detection, 2 hours incubation, four parameter logistic fit, read-out: OX2R Potency, EC50; for % of reference agonist maximal effect: human OX2R, percentage of sample raw value/mean max effect (reference compound at 1 uM with 100% activity)
Procedure, shortened: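 CHO cells stably expressing human OX2R were stimulated with compound (10-point ½-log dilutions) for 2 h at 37 °C. IP-1 accumulation was read by HTRF (IP-One, 665/620 nm). EC50 from a four-parameter fit; % effect relative to 1 μM reference agonist control.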

EC50	% of reference agonist maximal effect	SMILES
6980 nM	27.6%	COC(=O)N1CCCC(c2nc(O)sc2Cl)C1COC1CCC(c2ccccc2)CC1 (single isomer, unassigned) [Example 68, Methyl 3-(5-chloro-2-hydroxythiazol-4-yl)-2-(((4-phenylcyclohexyl)oxy)methyl)piperidine-1-carboxylate]
457 nM	82.9%	O=C(C1CC1)N1CCC[C@H](c2cc[nH]n2)[C@@H]1CO[C@H]1CC[C@@H](c2ccccc2)CC1 (single isomer, unassigned) [Example 71, cyclopropyl((CIS)-2-((((CIS)-4-phenylcyclohexyl)oxy)methyl)-3-(1H-pyrazol-3-yl)piperidin-1-yl)methanone]
1140 nM	90.7%	CC[C@H]1C[C@@H]1C(=O)N1CCC[C@H](c2cc[nH]n2)[C@@H]1COC1CCC(c2ccccc2)CC1 (stereo in doubt) [Example 90, 5-((CIS)-1-((TRANS)-2-ethylcyclopropane-1-carbonyl)-2-((((CIS)-4-phenylcyclohexyl)oxy)methyl)piperidin-3-yl)-1H-pyrazol-2-ium 2,2,2-trifluoroacetate]
4750 nM	84.6%	COC(=O)N1CCC[C@H](c2n[nH]cc2C)[C@@H]1COC1CC=C(c2cccc(F)c2)CC1 (stereo partly drawn) [Example 13, methyl (CIS)-2-((((S)-3′-fluoro-2,3,4,5-tetrahydro-[1,1′-biphenyl]-4-yl)oxy)methyl)-3-(4-methyl-1H-pyrazol-3-yl)piperidine-1-carboxylate]
27.8 nM	100.1%	CCNC(=O)N1CCC[C@H](c2cc[nH]n2)[C@@H]1CO[C@H]1CC[C@@H](c2ccccc2)CC1 [Example 17, (2R,3S)-N-ethyl-2-((((CIS)-4-phenylcyclohexyl)oxy)methyl)-3-(1H-pyrazol-3-yl)piperidine-1-carboxamide]
4800 nM	63.1%	CCNC(=O)N1CCC[C@@H](c2cc[nH]n2)[C@H]1CO[C@H]1CC[C@@H](c2ccccc2)CC1 [Example 19, (2S,3R)-N-ethyl-2-((((CIS)-4-phenylcyclohexyl)oxy)methyl)-3-(1H-pyrazol-3-yl)piperidine-1-carboxamide]
1360 nM	81.4%	COC(=O)N1CCCC(c2ccn[nH]2)C1CO[C@H]1CC[C@@H](c2c(F)ccc(F)c2F)CC1 (stereo partly drawn) [Example 29]
47.2 nM	100.3%	CCNC(=O)N1CCCC(c2ccn[nH]2)C1CO[C@H]1CC[C@@H](c2c(F)ccc(F)c2F)CC1 (stereo partly drawn) [Example 33]
17.8 nM	99.9%	O=C(NCC(F)(F)F)N1CCCC(c2ccn[nH]2)C1CO[C@H]1CC[C@@H](c2c(F)ccc(F)c2F)CC1 (stereo partly drawn) [Example 34]
542 nM	97.9%	O=C(OCC(F)F)N1CCCC(c2ccn[nH]2)C1CO[C@H]1CC[C@@H](c2c(F)ccc(F)c2F)CC1 (stereo partly drawn) [Example 35, 2,2-Difluoroethyl 3-(1H-pyrazol-5-yl)-2-((((CIS)-4-(2,3,6-trifluorophenyl)cyclohexyl)oxy-)methyl)piperidine-1-carboxylate]
1030 nM	96.3%	COC(=O)N1[C@H](C)CC(c2[nH]ncc2C)[C@@H]1CO[C@H]1CC[C@@H](c2ccccc2)CC1 (stereo partly drawn) [Example 36, Methyl (2R,5R)-5-methyl-3-(4-methyl-1H-pyrazol-5-yl)-2-((((CIS)-4-phenylcyclohexyl)oxy)methyl)pyrrolidine-1-carboxylate]
5110 nM	85.3%	COC(=O)N1[C@H](C)CC(c2ccn[nH]2)[C@@H]1CO[C@H]1CC[C@@H](c2ccccc2)CC1 (stereo partly drawn) [Example 37, Methyl (2R,5R)-5-methyl-2-((((CIS)-4-phenylcyclohexyl)oxy)methyl)-3-(1H-pyrazol-5-yl)pyrrolidine-1-carboxylate]
